Source: paper PMC3864238 (Pharmaceutics, 2011)

Tests used:
PBMCs [1] = test: Cellular association ratio (CAR) of radiolabelled drugs in PBMCs, drug-drug interaction; type: in vitro ADME, human; details: for effect of incubation at 4 °C on cell-associated concentration / cellular association ratio (CAR): PBMCs; for effect of incubation at 4 °C on cell-associated concentration: 4 °C vs 37 °C; for effect of unlabelled drug on CAR of [^3H]-TDF: 1 μM [^3H]-TDF; for effect of unlabelled drug on CAR of [^3H]-TDF / effect of unlabelled drug on CAR of [^3H]-ddI: dI 100 μM; for effect of unlabelled drug on CAR of [^3H]-ddI: 1 μM [^3H]-ddI; for cellular association ratio (CAR): 1 μM labelled drug, 30–45 min, no interacting drug, mean ± S.D.
Protocol: 11 PBMC samples were isolated from blood buffy coats using Lymphoprep (Alexis-sheild, Oslo, Norway), following the manufacturer's instructions. An aliquot of the PBMC samples were cryopreserved in fetal calf serum containing 10% dimethyl sulphoxide for batch analysis of membrane proteins by flow cytometry.
We also used 50 μM dipyridamole, 100 μM of deoxycytidine (dC), deoxyinosine (dI) and deoxyguanosine (dG) as positive controls to inhibit the transport of the drugs. The concentrations used of these inhibitors were based on previous observations. […] In a limited number of PBMC samples, we investigated the effects of two drug combinations on the uptake of labelled compounds as described above. The incubations were terminated by centrifugation (15,000 g, 1 min at 0 °C). A-100 μL aliquot of the supernatant was counted for radioactivity and the cell pellets were washed three times in ice-cold phosphate buffered saline followed by rapid centrifugation before the pellets were solubilised in 100 μL of distilled water as described previously and counted for radioactivity.

MRP = tested on: MRP; set-up: method as in PMID 17328866, PMID 17202245, PMID 19075072; details: cited from earlier work
[2] = tested on: CEM, CEMVBL (P-gp-overexpressing), CEME1000 (MRP1-overexpressing) and U937 cells; test: Preliminary transport experiments in cell lines; type: in vitro ADME; details: data not shown; for concentration-dependent effect of unlabelled drug on accumulation of the labelled drugs: 0-100 μM unlabelled drug, CEM, CEMVBL, CEME1000 and U937 cells
PBMCs [3] = test: Cell fractionation: membrane-bound and intracellular radiolabelled drug in PBMCs; type: in vitro ADME, human; details: 50 μM ABC
Protocol: In a separate experiment, cells were incubated with the tritiated compounds ([^3H]-3TC, -ddI and -TDF) in the absence or presence of 50 μM ABC as described. The assay was terminated by rapid centrifugation in a chilled microcentrifuge and the cell pellets were washed three times in ice-cold PBS as described, followed by three times of rapid freezing in liquid nitrogen and thawing at room temperature. The suspension was layered on top of 1 mL of ice-cold 42% percoll solution containing 0.25 M sucrose, 1.5 mM magnesium chloride, pH 7.1, and centrifuged (12,000 g, 30 min at 4 °C). After centrifugation, the radioactivity in the clear supernatant (assumed as intracellular drug) and in the pellet/debris, harvested from the bottom of the gradient (assumed as membrane-bound drug) were determined by scintillation counting.

P-gp [4] = tested on: P-gp; set-up: method as in PMID 11145192; details: cited from earlier work
[5] = Octanol-saline partition coefficient; type: physicochemical; details: octanol/phosphate buffered saline; radiolabelled drug 10-31 nM
Protocol: Briefly, an equal volume of octanol and phosphate buffered saline (PBS) were presaturated by vigorously vortexing them for 5 min. The suspension was allowed to settle for 10 min before the upper saturated octanol layer was carefully removed and stored in a separate tube. […] Then 540 μL aliquots of each compound were added to an equal volume of presaturated octanol and vortexed for 5 min. The samples were centrifuged (1000 g for 5 min). The concentrations of radiolabelled drug in a volume of the octanol (upper layer) and in a similar volume of saline (lower layer) were measured using scintillation counting. The octanol-saline partition coefficient was determined as a ratio of radiolabelled drug in the octanol phase to radiolabelled drug concentration in the saline phase.

P-gp [6] = details: cited from earlier work
BCRP = tested on: BCRP; set-up: method as in PMID 17202245; details: cited from earlier work
[7] = tested on: guinea-pig brain perfusion and choroid plexus models; details: cited from earlier work
[8] = unlabelled drugs 50 μM, dipyridamole 50 μM

| Compound | effect of incubation at 4 °C on cell-associated concentration (PBMCs [1]) | inhibition of MRP activity (MRP) | concentration-dependent effect of unlabelled drug on accumulation of the labelled drugs [2] | intracellular drug concentration, effect of ABC (PBMCs [3]) | membrane-bound drug concentration, effect of ABC (PBMCs [3]) | Partition coefficient (mean ± SD) [5] | other results |
| --- | --- | --- | --- | --- | --- | --- | --- |
| Nc1ccn([C@@H]2CS[C@H](CO)O2)c(=O)n1 [3TC, lamivudine] | significantly (P < 0.001) reduced at 4 °C | inhibited | no concentration-dependent effects | unaffected | significantly (P < 0.05) decreased | 0.117 ± 0.0049 | P-gp substrate ([2]; preliminary studies): not a P-gp substrate; P-gp substrate (P-gp [4]): not a substrate |
| OC[C@H]1O[C@@H](n2cnc3c(O)ncnc32)C[C@@H]1O [dI, deoxyinosine] |  |  |  |  |  |  | effect of unlabelled drug on CAR of [^3H]-TDF (PBMCs [1]; [8]): unaffected |
| CC(C)OC(=O)OCOP(=O)(CO[C@H](C)Cn1cnc2c(N)ncnc21)OCOC(=O)OC(C)C.O=C(O)/C=C/C(=O)O [TDF, Tenofovir disoproxil fumarate] | significantly (P < 0.001) reduced at 4 °C | inhibited | no concentration-dependent effects | unaffected | unaffected |  | effect of unlabelled drug on CAR of [^3H]-3TC (PBMCs [1]; 1 μM [^3H]-3TC, unlabelled drugs 50 μM, dipyridamole 50 μM, dC 100 μM): significantly (P < 0.05) reduced uptake; effect of unlabelled drug on CAR of [^3H]-ddI (PBMCs [1]; [8]): no effect; cellular association ratio (CAR) (PBMCs [1]): 2.20 ± 0.29; inhibition of P-gp activity (P-gp [6]): inhibited; BCRP inhibitory effect (BCRP): devoid of any BCRP inhibitory effect |
| O=c1[nH]cnc2c1ncn2[C@H]1CC[C@@H](CO)O1 [ddI, didanosine] | significantly (P < 0.001) reduced at 4 °C |  |  | significantly (P < 0.05) decreased | unaffected |  |  |
| Nc1nc(NC2CC2)c2ncn([C@H]3C=C[C@@H](CO)C3)c2n1 [ABC, abacavir] | did not affect | inhibited | no concentration-dependent effects |  |  | 7.065 ± 0.44 | effect of unlabelled drug on CAR of [^3H]-ddI (PBMCs [1]; [8]): no effect; cellular association ratio (CAR) (PBMCs [1]): 7.62 ± 1.32; inhibition of P-gp activity (P-gp [6]): inhibited; BCRP inhibitory effect (BCRP): inhibits; effect on intracellular accumulation of [^3H]-ddI [7]: increased |
| OCCN(CCO)c1nc(N2CCCCC2)c2nc(N(CCO)CCO)nc(N3CCCCC3)c2n1 [dipyridamole] |  |  |  |  |  |  | effect of unlabelled drug on CAR of [^3H]-TDF (PBMCs [1]; [8]): unaffected |
| OC[C@@H](O)[C@@H](O)[C@H](O)[C@H](O)CO [[^14C]-Mannitol, mannitol] |  |  |  |  |  | 0.0022 ± 0.0001 |  |
